From patent publication US20200281834A1, “COMPOSITION FOR PROMOTING EXPRESSION OF AQUAPORIN 3, AND USE THEREOF” (SUNTORY HOLDINGS LIMITED, priority 2017, published 2020)
“And” between values parts separate entries of the source, which are not always exact repeats. Equal entries are not always repeated.

System: aquaporin 3
Test: Expression level of aquaporin 3 in skin epithelial cells (real-time PCR, corrected for GAPDH)
Assay type: cell-based, Human
Details: NHEK, 24 hours
[1] = 30 μM, control (culture solution) = 1.0
[2] = 50 μM, control (culture solution) = 1.0

Procedure: As a control, 50% ethanol was prepared.
As a positive control, retinoic acid was prepared.
Human epidermal keratinocytes (NHEK (AD)) were precultured under conditions of 37° C. and 5% CO2 in a serum-free liquid medium for growing human epidermal keratinocyte (HuMedia-KG2 manufactured by Kurabo Industries, Ltd.) in a 21 cm^2 dish, and cultured until the cells became sub-confluent.
Next, each test sample was added to the culture solution. Each test sample was added to the culture solution in such a manner that the concentration of the wine in the culture solution was equivalent to 1/400 of the concentration of each original composition (wine).
After each test sample was added, the cells were cultured under conditions of 37° C. and 5% CO2 for 24 hours.
Instead of each test sample, 0.125 mL of 50% ethanol as a control was added to 5 mL of the culture solution.
Instead of each test sample, retinoic acid as a positive control was added to the culture solution in such a manner that the concentration of the retinoic acid in the culture solution was 2 μM.
After the compositions as the controls were added, the cells were cultured under conditions of 37° C. and 5% CO2 for 24 hours.
After the culture of skin epithelial cells in “(2) Culture of Skin Epithelial Cells”, RNA was extracted from the cultured cells with ISOGEN (manufactured by Nippon Gene Co., Ltd.).
From 1 μg of the resulting RNA, cDNA was synthesized with Superscript VILO Master Mix (manufactured by Invitrogen).
Thereafter, with primers (primers having nucleotide sequences of SEQ ID NOS: 1 and 2) shown in Table 4, real-time PCR was performed to detect expression of aquaporin 3 (Genbank Accession No. NM_004925).
For PCR, KOD SYBR qPCR Mix (manufactured by Toyobo Co., Ltd.) was used, and the reaction conditions were set such that thermal denaturation was carried out at 98° C. for 10 seconds, annealing was carried out at 60° C. for 10 seconds, and elongation reaction was carried out at 68° C. for 30 seconds.
The fluorescence intensity in the process of amplification was monitored with a quantitative PCR apparatus StepOnePlus (manufactured by Applied Biosystems) to determine the number of cycles taken until the fluorescence intensity became constant. From the number of cycles for aquaporin 3, the expression level was calculated through a standard method.
In parallel to detection of the expression level of aquaporin 3 by real-time PCR, the expression level of glyceraldehyde-3-phosphate dehydrogenase (GAPDH) (Genbank Accession No. NM_002046) which is a housekeeping gene was measured with primers (primers having nucleotide sequences of SEQ ID NOS: 3 and 4) shown in Table 4.
The expression level of aquaporin 3 in the cultured cells was corrected for the expression level of GAPDH, and the expression level relative against the expression level of aquaporin 3 in the control was calculated, where the expression level of aquaporin 3 in the control was defined as 1.0.
The expression level of aquaporin 3 in skin epithelial cells was measured in the same manner as in “Method for Evaluating Expression Level of Aquaporin 3” except that instead of each test sample, 0.0125 mL of each fraction was added to 5 mL of a culture solution.
Each compound was dissolved in a human epidermal keratinocyte growing serum-free liquid medium (HuMedia-KG2 manufactured by Kurabo Industries, Ltd.) to prepare a test sample.
The culture solution was used as a control.

Molecule	Relative gene expression level (average) of aquaporin 3 [1]	Relative gene expression level (average) of aquaporin 3 [2]	Relative gene expression level (average) of aquaporin 3 (2 μM, control (50% ethanol) = 1.0)	Relative gene expression level (average) of aquaporin 3 (2 μM, control (culture solution) = 1.0, listed as RA)
O=C(O[C@@H]1Cc2c(O)cc(O)cc2O[C@@H]1c1cc(O)c(O)c(O)c1)c1cc(O)c(O)c(O)c1 [EGCG, epigallocatechin gallate]	1.36	1.47		
Oc1cc(O)c2c(c1)O[C@H](c1ccc(O)c(O)c1)[C@@H](O)[C@@H]2c1c(O)cc(O)c2c1O[C@H](c1ccc(O)c(O)c1)[C@@H](O)C2 [C-C, Procyanidin B3]	1.19	1.27		
Oc1cc(O)c2c(c1)O[C@H](c1ccc(O)c(O)c1)[C@H](O)[C@H]2c1c(O)cc(O)c2c1O[C@H](c1ccc(O)c(O)c1)[C@H](O)[C@H]2c1c(O)cc(O)c2c1O[C@H](c1ccc(O)c(O)c1)[C@H](O)C2 [PC1, procyanidin C1]	1.41	1.34		
Oc1cc(O)c2c(c1)O[C@H](c1ccc(O)c(O)c1)[C@H](O)[C@H]2c1c(O)cc(O)c2c1O[C@H](c1ccc(O)c(O)c1)[C@@H](O)C2 [EC-C, Procyanidin B1]	1.14	1.20		
Oc1cc(O)c2c(c1)O[C@H](c1ccc(O)c(O)c1)[C@H](O)[C@H]2c1c(O)cc(O)c2c1O[C@H](c1ccc(O)c(O)c1)[C@H](O)C2 [EC-EC, procyanidin B2]	0.98	0.99		
Oc1cc(O)c2c(c1)O[C@H](c1ccc(O)c(O)c1)[C@H](O)C2 [EC, epicatechin]	1.15	1.21		
O=C(O[C@@H]1Cc2c(O)cc(O)c([C@@H]3c4c(O)cc(O)cc4O[C@H](c4ccc(O)c(O)c4)[C@H]3O)c2O[C@@H]1c1ccc(O)c(O)c1)c1cc(O)c(O)c(O)c1 [C-ECG, (+)-catechin-(−)epicatechin-3-O-gallate]	2.19	2.59		
O=C(O[C@@H]1Cc2c(O)cc(O)cc2O[C@@H]1c1ccc(O)c(O)c1)c1cc(O)c(O)c(O)c1 [ECG, epicatechin gallate]	1.63	1.25		
Oc1cc(O)c2c(c1)O[C@H](c1ccc(O)c(O)c1)[C@@H](O)[C@@H]2c1c(O)cc(O)c2c1O[C@H](c1ccc(O)c(O)c1)[C@H](O)C2 [C-EC, procyanidin B4]	1.24	1.12		
catechin	1.19	1.14		
(+)-catechin-(+)-catechin-(−)-epicatechin-3-O-gallate [C-C-ECG]	2.01	2.50		
CC1=C(/C=C/C(C)=C/C=C/C(C)=C/C(=O)O)C(C)(C)CCC1 [Retinoic acid, retinoic acid]			1.61	1.32 and 1.36 and 1.21
